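Grown in 96-well plates, cells were treated for 48 hours with each compound at five concentrations. Insufficient inhibition: endpoint recorded as highest concentration tested. The concentration for 50% growth inhibition is given as GI50. At the TGI there is no net growth.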
Key:
Assay in all cases: NCI anticancer screen, dose series, 48 h
T-47D breast = tested on: T-47D breast
MALME-3M melanoma = tested on: MALME-3M melanoma
M14 melanoma = tested on: M14 melanoma
OVCAR-3 ovarian = tested on: OVCAR-3 ovarian
NCI-H226 lung = tested on: NCI-H226 lung
U251 CNS = tested on: U251 CNS
UACC-257 melanoma = tested on: UACC-257 melanoma
ACHN renal = tested on: ACHN renal
NCI-H460 lung = tested on: NCI-H460 lung
PC-3 prostate = tested on: PC-3 prostate
OVCAR-8 ovarian = tested on: OVCAR-8 ovarian
LOX IMVI melanoma = tested on: LOX IMVI melanoma
SF-268 CNS = tested on: SF-268 CNS
RXF 393 renal = tested on: RXF 393 renal
RPMI-8226 leukemia = tested on: RPMI-8226 leukemia
HCC-2998 colon = tested on: HCC-2998 colon
HT29 colon = tested on: HT29 colon
CAKI-1 renal = tested on: CAKI-1 renal
UO-31 renal = tested on: UO-31 renal
HOP-92 NSCLC = tested on: HOP-92 NSCLC
SNB-75 CNS = tested on: SNB-75 CNS
SN12C renal = tested on: SN12C renal
SK-MEL-28 melanoma = tested on: SK-MEL-28 melanoma
IGROV1 ovarian = tested on: IGROV1 ovarian
HS 578T breast = tested on: HS 578T breast
BT-549 breast = tested on: BT-549 breast
SK-OV-3 ovarian = tested on: SK-OV-3 ovarian
HOP-62 NSCLC = tested on: HOP-62 NSCLC
UACC-62 melanoma = tested on: UACC-62 melanoma
CCRF-CEM leukemia = tested on: CCRF-CEM leukemia
SR leukemia = tested on: SR leukemia
HL-60(TB) leukemia = tested on: HL-60(TB) leukemia
SW-620 colon = tested on: SW-620 colon
MCF7 breast = tested on: MCF7 breast
HCT-15 colon = tested on: HCT-15 colon
NCI/ADR-RES ovarian = tested on: NCI/ADR-RES ovarian
A549 NSCLC = tested on: A549 NSCLC
SNB-19 CNS = tested on: SNB-19 CNS
OVCAR-5 ovarian = tested on: OVCAR-5 ovarian
TK-10 renal = tested on: TK-10 renal
786-0 renal = tested on: 786-0 renal
NCI-H23 lung = tested on: NCI-H23 lung
DU-145 prostate = tested on: DU-145 prostate
A498 renal = tested on: A498 renal
HCT-116 colon = tested on: HCT-116 colon
EKVX NSCLC = tested on: EKVX NSCLC
MDA-MB-231 breast = tested on: MDA-MB-231 breast
MDA-MB-435 = tested on: MDA-MB-435
NCI-H522 lung = tested on: NCI-H522 lung
SF-295 CNS = tested on: SF-295 CNS
MOLT-4 leukemia = tested on: MOLT-4 leukemia
K-562 leukemia = tested on: K-562 leukemia
SK-MEL-2 melanoma = tested on: SK-MEL-2 melanoma
COLO 205 colon = tested on: COLO 205 colon
KM12 colon = tested on: KM12 colon
SK-MEL-5 melanoma = tested on: SK-MEL-5 melanoma
SF-539 CNS = tested on: SF-539 CNS

O=c1cc(N/N=C/c2ccc(F)cc2)c2cc(Cl)ccc2[nH]1
GI50 (T-47D breast): 18.6 µM
TGI (T-47D breast): > 100 µM
GI50 (MALME-3M melanoma): 14.2 µM
TGI (MALME-3M melanoma): 54 µM
GI50 (M14 melanoma): 10.2 µM
TGI (M14 melanoma): > 100 µM
GI50 (OVCAR-3 ovarian): 24.8 µM
TGI (OVCAR-3 ovarian): > 100 µM
GI50 (NCI-H226 lung): 14.6 µM
TGI (NCI-H226 lung): > 100 µM
GI50 (U251 CNS): 21.1 µM
TGI (U251 CNS): 98.4 µM
GI50 (UACC-257 melanoma): 15.5 µM
TGI (UACC-257 melanoma): 56.5 µM
GI50 (ACHN renal): 17.2 µM
TGI (ACHN renal): 72.1 µM
GI50 (NCI-H460 lung): 20.3 µM
TGI (NCI-H460 lung): > 100 µM
GI50 (PC-3 prostate): 8.41 µM
TGI (PC-3 prostate): 96.3 µM
GI50 (OVCAR-8 ovarian): 19.8 µM
TGI (OVCAR-8 ovarian): > 100 µM
GI50 (LOX IMVI melanoma): 25.3 µM
TGI (LOX IMVI melanoma): > 100 µM
GI50 (SF-268 CNS): 33.6 µM
TGI (SF-268 CNS): > 100 µM
GI50 (RXF 393 renal): 23.7 µM
TGI (RXF 393 renal): > 100 µM
GI50 (RPMI-8226 leukemia): 17 µM
TGI (RPMI-8226 leukemia): > 100 µM
GI50 (HCC-2998 colon): 32.4 µM
TGI (HCC-2998 colon): > 100 µM
GI50 (HT29 colon): 23.1 µM
TGI (HT29 colon): > 100 µM
GI50 (CAKI-1 renal): 23.5 µM
TGI (CAKI-1 renal): > 100 µM
GI50 (UO-31 renal): 21.9 µM
TGI (UO-31 renal): > 100 µM
GI50 (HOP-92 NSCLC): 14 µM
TGI (HOP-92 NSCLC): 45.9 µM
GI50 (SNB-75 CNS): 12.7 µM
TGI (SNB-75 CNS): 83.1 µM
GI50 (SN12C renal): 23.8 µM
TGI (SN12C renal): > 100 µM
GI50 (SK-MEL-28 melanoma): 19.8 µM
TGI (SK-MEL-28 melanoma): > 100 µM
GI50 (IGROV1 ovarian): 18.5 µM
TGI (IGROV1 ovarian): > 100 µM
GI50 (HS 578T breast): 25.3 µM
TGI (HS 578T breast): > 100 µM
GI50 (BT-549 breast): 15.8 µM
TGI (BT-549 breast): 44.5 µM
GI50 (SK-OV-3 ovarian): 20.1 µM
TGI (SK-OV-3 ovarian): 83.4 µM
GI50 (HOP-62 NSCLC): 20.7 µM
TGI (HOP-62 NSCLC): > 100 µM
GI50 (UACC-62 melanoma): 16.7 µM
TGI (UACC-62 melanoma): > 100 µM
GI50 (CCRF-CEM leukemia): 12 µM
TGI (CCRF-CEM leukemia): > 100 µM
GI50 (SR leukemia): 24.5 µM
TGI (SR leukemia): 85.6 µM
GI50 (HL-60(TB) leukemia): 18.8 µM
TGI (HL-60(TB) leukemia): 50.9 µM
GI50 (SW-620 colon): 26.8 µM
TGI (SW-620 colon): > 100 µM
GI50 (MCF7 breast): 15.3 µM
TGI (MCF7 breast): > 100 µM
GI50 (HCT-15 colon): 19.9 µM
TGI (HCT-15 colon): > 100 µM
GI50 (NCI/ADR-RES ovarian): 23.5 µM
TGI (NCI/ADR-RES ovarian): > 100 µM
GI50 (A549 NSCLC): 23.5 µM
TGI (A549 NSCLC): > 100 µM
GI50 (SNB-19 CNS): 23.5 µM
TGI (SNB-19 CNS): > 100 µM
GI50 (OVCAR-5 ovarian): 21.6 µM
TGI (OVCAR-5 ovarian): 58.9 µM
GI50 (TK-10 renal): 47.1 µM
TGI (TK-10 renal): > 100 µM
GI50 (786-0 renal): 26.3 µM
TGI (786-0 renal): > 100 µM
GI50 (NCI-H23 lung): 19.5 µM
TGI (NCI-H23 lung): 76.1 µM
GI50 (DU-145 prostate): 33.9 µM
TGI (DU-145 prostate): > 100 µM
GI50 (A498 renal): 14.8 µM
TGI (A498 renal): 92.7 µM
GI50 (HCT-116 colon): 17.4 µM
TGI (HCT-116 colon): > 100 µM
GI50 (EKVX NSCLC): 16.8 µM
TGI (EKVX NSCLC): > 100 µM
GI50 (MDA-MB-231 breast): 16 µM
TGI (MDA-MB-231 breast): 51.7 µM
GI50 (MDA-MB-435): 13.4 µM
TGI (MDA-MB-435): > 100 µM
GI50 (NCI-H522 lung): 17.4 µM
TGI (NCI-H522 lung): 74.3 µM
GI50 (SF-295 CNS): 21.9 µM
TGI (SF-295 CNS): > 100 µM
GI50 (MOLT-4 leukemia): 4.07 µM
TGI (MOLT-4 leukemia): > 100 µM
GI50 (K-562 leukemia): 13.2 µM
TGI (K-562 leukemia): 93.2 µM
GI50 (SK-MEL-2 melanoma): 18.3 µM
TGI (SK-MEL-2 melanoma): 69.3 µM
GI50 (COLO 205 colon): 18.2 µM
TGI (COLO 205 colon): 43.5 µM
GI50 (KM12 colon): 22 µM
TGI (KM12 colon): > 100 µM
GI50 (SK-MEL-5 melanoma): 3.54 µM
TGI (SK-MEL-5 melanoma): 14.1 µM
GI50 (SF-539 CNS): 23.6 µM
TGI (SF-539 CNS): 78.2 µM

Source: PubChem BioAssay (NCI)
